Laboratory results published in US4775674A, “Imidazoquinolinylether derivatives useful as phosphodiesterase and blood aggregation inhibitors” (Bristol-Myers Company, priority 1986, dated 1988).
≈ marks a conversion by molar mass, not a printed value. Read-outs that look alike come from different tables or passages of the source.

Experiments:
[1] = system: adenosine diphosphate (ADP)-induced platelet aggregation; assay: In vitro inhibition of platelet aggregation, ADP-induced (rabbit platelet rich plasma); type: cell-based; conditions: Oryctolagus cuniculus, ADP 0.5 mcg/ml, read-out: Platelet Inhibition In Vitro - Rabbit PRP EC50 vs. ADP
Experimental: (§1) The aggregometer method of Born (1), as modified by Mustard, et al. (2) was used to assess the in vitro activity of the various compounds as to inhibition of adenosine diphosphate (ADP) and collagen-induced platelet aggregation. Platelet rich plasma (PRP) was separated by centrifugation from citrated (3.8 percent) rabbit blood. […] The various compounds tested were dissolved in dimethylsulfoxide (DMSO) so that 5 mcl added to the platelet rich plasma would yield the desired test concentration. Vehicle control trials were done and compared with aggregation induced in platelet rich plasma containing various concentrations of the test compounds. Dose response curves were obtained and Effective Concentration (EC50) values calculated.

[2] = system: collagen-induced platelet aggregation; assay: In vitro inhibition of platelet aggregation, collagen-induced (rabbit platelet rich plasma); type: cell-based; conditions: Oryctolagus cuniculus, collagen suspension 0.05 ml, read-out: Platelet Inhibition In Vitro - Rabbit PRP EC50 vs. collagen
Experimental: as §1

[3] = system: platelet aggregation (Ex Vivo vs. ADP); assay: Inhibition of platelet aggregation following oral administration (Ex vivo); type: in vivo; conditions: Rattus norvegicus, rats, oral by gavage, 2 hours after dosing
Experimental: This test is sometimes referred to in the art as an Ex vivo method and was initially described by Fleming, et al., Arch. Int. Pharmacodyn. Ther., 199, 164 (1972). Briefly, the assay is essentially carried out as follows.
Aggregometry is performed in vitro as previously described on platelet rich plasma samples obtained from rats dosed with either test compounds or the vehicle. In all cases, activity is determined 2 hours after the drug is administered orally at various doses by gavage as a suspension in […] plus a few drops of Tween 20.

[4] = biological target: T1, cAMP phosphodiesterase (human platelets) (Homo sapiens, UniProt Q14432); assay: Inhibition of cyclic AMP phosphodiesterase; type: biochemical; conditions: PDE from human platelets
T1 construct: enzynme obtained from human platelets; from tissue; host or cells: human platelets
Experimental: This assay is carried out essentially as described by Thompson, et al., Methods in Enzymology, 38, 205-212 (1974). Briefly, tritium labeled cyclic adenosine monophosphate (cAMP) is incubated with a phosphodiesterase (PDE) enzynme obtained from human platelets which converts a portion of the cAMP to 5'AMP in culture tubes. This reaction is terminated by submerging the tubes in a boiling water bath after which they are placed on ice and an aliquot of snake venom is added to each tube. This, during a second incubation, converts the 5'AMP to adenosine. Ion exchange resin is added to bind the remaining cyclic AMP. The tubes are centrifuged to sediment the resin and a portion of the clear supernatent (which contains radioactive adenosine) is counted in a liquid scintillation counter. The cAMP phosphodiesterase inhibition activity of a test agent is determined by pre-incubating the PDE enzyme preparation with the test agent.

[5] = system: ferrets (right ventricular contractile force, blood pressure); assay: In vivo inotropic activity in ferrets; design: species or system ferret; conditions: Mustela putorius, 1 h, anesthetized ferret, intraduodenal, 60 minutes
Experimental: This test is carried out in ferrets as follows. Fasted anesthetized ferrets are instrumented to study hemodynamic parameters as well as right ventricular contractile force (RVCF) using a Walton-Brodie open strain guage arch. Drugs are administered intraduodenally as solutions in DMSO (1 mL or less) and effects on myocardial contractile force and other parameters are monitored for 60 minutes after dosing. Changes in contractile force in response to drug treatment are expressed in terms of percent change from predose control.

[6] = vs predose control, read-out: Maximum Percentage Change Right Ventricular Contractile Force (RVCF)
[7] = read-out: Maximum Percentage Change Blood Pressure

T1 sequence (Q14432 whole entry): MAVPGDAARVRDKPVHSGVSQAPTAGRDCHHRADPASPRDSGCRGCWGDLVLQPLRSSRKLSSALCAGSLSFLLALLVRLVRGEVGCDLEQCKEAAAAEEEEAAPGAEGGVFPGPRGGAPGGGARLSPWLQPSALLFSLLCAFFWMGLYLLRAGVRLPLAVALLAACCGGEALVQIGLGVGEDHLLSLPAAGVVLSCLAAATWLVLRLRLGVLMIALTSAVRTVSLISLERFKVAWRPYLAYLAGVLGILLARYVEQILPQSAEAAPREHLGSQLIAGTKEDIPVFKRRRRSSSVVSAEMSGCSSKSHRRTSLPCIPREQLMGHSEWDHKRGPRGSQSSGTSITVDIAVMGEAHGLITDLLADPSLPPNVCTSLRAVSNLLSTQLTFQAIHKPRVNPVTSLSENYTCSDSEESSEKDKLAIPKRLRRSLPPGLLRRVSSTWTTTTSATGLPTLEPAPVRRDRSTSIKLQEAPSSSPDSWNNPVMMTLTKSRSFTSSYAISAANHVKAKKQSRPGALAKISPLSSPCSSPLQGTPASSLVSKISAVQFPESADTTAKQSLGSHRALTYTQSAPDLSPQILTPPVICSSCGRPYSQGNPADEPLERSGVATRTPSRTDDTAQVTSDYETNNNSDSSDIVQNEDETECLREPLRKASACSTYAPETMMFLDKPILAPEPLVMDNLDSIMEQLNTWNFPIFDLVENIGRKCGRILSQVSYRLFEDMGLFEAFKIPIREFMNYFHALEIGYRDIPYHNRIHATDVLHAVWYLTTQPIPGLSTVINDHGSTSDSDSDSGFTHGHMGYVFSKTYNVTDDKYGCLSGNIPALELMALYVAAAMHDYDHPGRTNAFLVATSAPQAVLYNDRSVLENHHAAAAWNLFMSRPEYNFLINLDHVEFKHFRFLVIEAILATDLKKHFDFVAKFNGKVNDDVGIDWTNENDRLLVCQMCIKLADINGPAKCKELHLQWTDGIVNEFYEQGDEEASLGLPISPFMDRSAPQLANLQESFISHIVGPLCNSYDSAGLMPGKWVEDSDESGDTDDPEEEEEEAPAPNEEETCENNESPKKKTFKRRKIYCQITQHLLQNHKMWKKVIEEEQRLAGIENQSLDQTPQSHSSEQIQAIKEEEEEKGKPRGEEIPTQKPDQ

Compound | EC50 [1] [ng/mL] | EC50 [2] [ng/mL] | ED50 [3] [mg/kg] | IC50 [4] [nM] | change in vivo at 0.3 mg/kg [5, 6] [%] | change in vivo at 0.3 mg/kg [5, 7] [%] | change in vivo at 3 mg/kg [5, 6] [%] | change in vivo at 3 mg/kg [5, 7] [%] | change in vivo at 0.03 mg/kg [5, 6] [%] | change in vivo at 0.03 mg/kg [5, 7] [%]
COC(=O)CCCOc1ccc2nc3[nH]c(=O)[nH]c3cc2c1 [Example 10, Methyl 4-[(2,3-Dihydro-2-oxo-1H-imidazo[4,5-b]quinolin-7-yl)oxy]butanoate] | 20 (≈ 66.4 nM) | 6 (≈ 19.9 nM) | 4.4 | 400 | 9 ± 10 | -14 ± 9 | -9 ± 1 | -14 ± 8 |  | 
CN(C(=O)CCCOc1ccc2nc3nc(O)n(C)c3cc2c1)C1CCCCC1 [Example 31, N-Cyclohexyl-N-methyl-4-[(2,3-dihydro-1-methyl-2-oxo-1H-imidazo[4,5-b]quinolin-7-yl]oxo]butanamide] | 20 (≈ 50.4 nM) | 18 (≈ 45.4 nM) | 2.1 | 200 | 0 | -28 ± 5 | 3 ± 6 | -36 ± 3 |  | 
CN(C(=O)CCCCOc1ccc2nc3[nH]c(=O)[nH]c3cc2c1)C1CCCCCC1 [Example 33, N-Cycloheptyl-N-methyl-5-[(2,3-dihydro-2-oxo-1H-imidazo[4,5-b]quinolin-7-yl)oxy]pentanamide] | 2 (≈ 4.87 nM) | 0.6 (≈ 1.46 nM) | 1.7 | 0.4 | 27 ± 8 | -34 ± 2 |  |  |  | 
COC(=O)CN(C(=O)CCCOc1ccc2nc3[nH]c(=O)[nH]c3cc2c1)C1CCCCC1 [Example 21, N-Cyclohexyl-N-[4-[(2,3-dihydro-2-oxo-1H-imidazo[4,5-b]quinolin-7-yl)oxy]-1-oxobutyl]glycine Methyl Ester] | 2.5 (≈ 5.68 nM) | 0.8 (≈ 1.82 nM) | < 3 | 0.5 |  |  | 26 | -26 |  | 
O=C(CCCOc1ccc2nc3[nH]c(=O)[nH]c3cc2c1)NC12CC3CC(CC(C3)C1)C2 [Example 16, 4-[(2,3-Dihydro-2-oxo-1H-imidazo[4,5-b]quinolin-7-yl)oxy]-N-(tricyclo[3.3.1^3,7]decan-7-yl)butanamide] | 50 (≈ 119 nM) | 20 (≈ 47.6 nM) | 4 | 1 |  |  | 6 ± 3 | -10 ± 4 |  | 
CN(C(=O)CCCOc1ccc2nc3[nH]c(=O)[nH]c3cc2c1)C1CCCCC1 [Example 30, N-Cyclohexyl-N-methyl-4-[(2,3-dihydro-2-oxo-1H-imidazo[4,5-b]quinolin-7-yl)oxy]butanamide] | 2 (≈ 5.23 nM) | 1 (≈ 2.61 nM) | 2.4 | 2 | 41 ± 5 | -27 ± 6 | 35 ± 2 | -30 ± 2 | 8 ± 2 | -3
CN(C(=O)CCCCOc1ccc2nc3[nH]c(=O)[nH]c3cc2c1)C1CCCCC1 [Example 32, N-Cyclohexyl-N-methyl-5-[(2,3-dihydro-2-oxo-1H-imidazo[4,5-b]quinolin-7-yl)oxo]pentanamide] | 3 (≈ 7.57 nM) | 0.8 (≈ 2.02 nM) | 3.8 | 2 | 18 ± 4 | -27 ± 10 |  |  |  | 
